# Experimental data as given in patent publication US6551796B1, “Nucleic acid encoding urate transporter and methods of use thereof” (Mount Sinai School of Medicine, priority 1997, dated 2003).
# Columns and labels:
# Format in all cases: biochemical
# [1] = target: T1, hUAT (human urate transporter/channel, galectin 9) (Homo sapiens, UniProt O00182); test: Channel activity of recombinant human UAT (galectin 9) reconstituted in lipid bilayer
# T1 construct: 6-histidine tag (N); made in house
# Procedure: Galactin 9 was reported to be a secreted neutrophil chemoattractant. However, galectin 9 has more than 75% amino acid homology to the rat urate transporter/channel. To test whether galectin 9 is the human plasma membrane-associated urate transporter channel, cDNA was generated by RT-PCR of RNA from WBC of a normal donor and fused with an amino terminal 6-histidine tag in a bacterial expression vector. Recombinant protein (hUAT) was prepared and then purified on a Ni-NTA column. hUTA was sonicated into liposomes, fused with a lipid bilayed, and channel activity was recorded. Channel activity was only detected in the presence of urate. […] This difference in voltage sensitivity is consistent with the absence of a positively charged amino acid in hUAT in a region of the putative voltage sensing loop within rat UAT.
# In a continued search for local blocks of homology between rat and human UAT and known proteins, a highly significant block of homology to copper chaperones was detected in the carboxy terminus of both the rat and human UAT. Based on the possibility that this portion of UAT binds copper, like copper chaperones, experiments were conducted to determine whether copper was able to modulate UAT channel activity. Using rat and human recombinant UAT it was observed that copper plays an important role in modulating channel activity.
# The rat and human urate transporter/channel amino acid sequence contains two galactose binding sites. In the molecular model of the urate transporter/channel, both of these sites reside in extracellular domains of the protein. One site is located between the putative first and second transmembrane domain, the second is located between the putative third and fourth transmembrane domains. Experiments indicate that the addition of lactose (less than 50 μM) to the side of the bilayer chamber that is believed to face the extracellular domains of the protein alters the biophysical properties of the human urate transporter channel. […] In vivo, this could result in increased urate excretion and ultimately a reduction in plasma urate concentration.
# [2] = target: T2, recombinant UAT (urate transporter/channel) (Rattus norvegicus, UniProt P97840); test: Channel activity of recombinant rat UAT reconstituted in planar lipid bilayer (patch clamp recording); conditions: 2.5 mM urate cis : 2.5 mM oxonate trans
# T2 construct: 6-histidine metal chelating domain (pRSET A leader) (N); made in house; host or cells: E. coli BL21(DE3)pLysE, vector pRSET A
# T2 sequence (P97840 1-322 isoform P97840-2 L155H): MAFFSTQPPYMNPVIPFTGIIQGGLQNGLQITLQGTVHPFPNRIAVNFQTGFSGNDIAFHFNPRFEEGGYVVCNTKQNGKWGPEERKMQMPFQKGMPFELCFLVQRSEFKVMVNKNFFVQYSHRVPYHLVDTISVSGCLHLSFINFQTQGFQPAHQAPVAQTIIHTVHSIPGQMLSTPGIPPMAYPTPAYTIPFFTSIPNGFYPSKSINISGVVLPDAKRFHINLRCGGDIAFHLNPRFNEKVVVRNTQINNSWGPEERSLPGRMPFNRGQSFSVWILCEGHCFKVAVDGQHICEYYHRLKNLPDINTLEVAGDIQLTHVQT
# Procedure: (§1) A mixture of bovine phosphatidyl-ethanolamine (PE, 10 mg/ml), and phosphatidylserine (PS, 10 mg/ml) (Avanti Polar Lipids, Birmingham. Ala.) in a ratio of 1:1 (wt/wt) was evaporated to dryness under nitrogen. The resultant phospholipid pellet was suspended in 48 μl of a solution containing 220 mM KCl, CsCl or Cs2SO4 and 10 mM HEPES-NaOH at pH 7.4. Following the addition of 2 μl recombinant UAT protein (50-100 μg/ml), proteoliposomes were formed by sonicating the mixture for 30 sec at 80 kHz in a bath sonicator (Laboratory Supplies, Hicksville, N.Y.) as described by Leal-Pinto et al. (1995) J. Membrane Biol. 146:123. In some experiments, proteoliposomes were prepared with the same lipids but with 10 μl recombinant HIV-1 Tat protein, as described by Zagury et al. (1996) Cellular Pharm.—AIDS Sciences 3:97 at 380 μg/ml and 40 μl of 220 mM Cs2SO4, 10 mM HEPES-NaOH at pH 7.4. Fresh proteoliposomes were prepared for each experiment.
# (§2) The lipid bilayer chamber was identical to that described by Leal-Pinto et al. (1995) J. Membrane Biol. 146:123. The two cups of the plexiglass bilayer chamber were each initially filled with 1 ml of a solution whose electrolyte composition was identical to that in which the proteoliposomes were prepared. A 1:1 (wt/wt) mixture of bovine brain PE (10 mg/ml) and PS (10 mg/ml) (Avanti Polar Lipids) was dried with a nitrogen stream, dissolved in decane (Sigma Chemical Co.) to 50 mg lipid/ml and then painted with a club-shaped glass rod onto a 50 um hole in a Teflon film (Type C-20, 12.5 um thick, Dupont Electronics, Wilmington, Del.) that was fitted between the two cups of the chamber. Offset potentials due to all junction potentials were corrected by using the zero adjust system of the patch clamp amplifier (Model PC-501, Warner Instrument Co.). The voltage was subsequently clamped at varying levels (−100 to +100 mV): voltage was generated and controlled by the patch clamp amplifier. If a stable resistance of at least 100 gigohms and a noise of less than 0.2 pA were maintained, the experiments were initiated.
# (§3) Experiments were initiated by adding proteoliposomes to the trans chamber (1 μl of UAT or 5-50 μl of HIV-1 Tat proteoliposomes). The solution was stirred until fusion occurred. Fusion usually occurred within 2-3 minutes of the addition of UAT-containing proteoliposomes, evidenced by the presence of channel gating (clear transitions between the closed and open states). Once fusion occurred the stirrers were stopped and the solution in the trans chamber was replaced with 1 ml of an identical solution, without proteoliposomes, to limit further channel incorporation. In all experiments channel activity was initially evaluated in the presence of symmetrical solutions of 2.5 mM urate in either 220 mM KCl, CsCl, or Cs2SO4, 10 mM HEPES-NaOH, and 0.25 mM CaCl2 at pH 7.4. In some experiments channel activity was compared in the absence and presence of 5 mM Ba^+−. To evaluate channel selectivity, experiments were performed in symmetrical solutions of 2.5 mM urate, but with infinite gradients of K^+, Cs^−, Ca^−−, Cl^− and/or SO4^═ established by using the following combination of buffered solutions in the cis and trans chambers, respectively: a) CsCl and KCl, b) Cs2SO4 and CsCl, and c) Cs2SO4 with Ca^−+ and Cs2SO4 without Ca^−+. Selectivity was also evaluated in symmetrical solutions of 220 mM Cs2SO4, 10 mM HEPES-NaOH, and 0.25 mM CaCl2 at pH 7.4 in the presence of a 10:1 urate gradient: the 2.5 mM urate, buffered Cs2SO4 solution in the trans chamber was replaced with a Cs2SO4 solution containing 0.25 mM urate. In a final group of experiments, channel activity was compared in symmetrical solutions of 2.5 mM urate, 220 mM Cs2SO4, 10 mM HEPES-NaOH, and 0.25 mM CaCl2 at pH 7.4 before and after an increasing amount of non-immune IgG (up to 200 μg) or the IgG fraction of antiporcine uricase (up to 15 μg) was sequentially added to each side of the lipid bilayer. […]
# [3] = target: T3, recombinant UAT (urate transporter/channel) (Rattus norvegicus, UniProt P97840, L187H); test: as above; conditions: for reversibility of block of channel activity: replacing the agent-containing solution with agent-free urate solution; for effect on channel activity, cis (cytoplasmic) side: agent added to cis chamber / cytoplasmic side of UAT; for concentration that completely blocked channel activity: agent in trans chamber (extracellular side of UAT)
# T3 construct: 6-histidine metal chelating domain (pRSET A leader) (N); made in house; host or cells: E. coli BL21(DE3)pLysE, vector pRSET A
# T3 sequence (P97840 1-322 isoform P97840-2 L155H): as above
# Procedure: as §1, §2, §3
# [4] = less than 50 μM on the side facing the extracellular domains
# [5] = less than 1 μM copper added to the bathing solution
# T1 sequence (O00182 1-323 isoform O00182-2): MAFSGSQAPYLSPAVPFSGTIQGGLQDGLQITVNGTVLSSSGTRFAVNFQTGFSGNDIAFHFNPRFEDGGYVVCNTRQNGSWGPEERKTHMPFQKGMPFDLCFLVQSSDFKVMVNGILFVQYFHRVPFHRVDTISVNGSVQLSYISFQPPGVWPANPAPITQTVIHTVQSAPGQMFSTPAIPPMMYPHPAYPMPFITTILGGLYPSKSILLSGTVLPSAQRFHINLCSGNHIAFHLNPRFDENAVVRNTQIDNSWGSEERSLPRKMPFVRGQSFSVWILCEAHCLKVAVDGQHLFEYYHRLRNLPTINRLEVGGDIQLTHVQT
smiles,measurement,setting,value
OC[C@H]1O[C@@H](O[C@H]2[C@H](O)[C@@H](O)C(O)O[C@@H]2CO)[C@H](O)[C@@H](O)[C@H]1O (some centres unmarked) [lactose],effect on current,[1]; [4],increase in current
same,effect on stability of the channel in the lipid bilayer,[1]; [4],apparent stabilization of the channel
O=C(O)c1nc(=O)[nH]c(=O)[nH]1 [oxonate],channel activity under bi-ionic conditions,[2],ceased after approximately one hour
same,"effect on channel activity, trans side","[3]; 250 μM on the trans side of the channel, symmetrical urate",not affected
same,concentration at which channel activity was 97% blocked,"[3]; oxonate in cis (cytoplasmic) chamber, symmetrical 2.5 mM urate, mean±SE, n=3",108 ± 16 µM
same,reversibility of block of channel activity,[3],reversed
[Cu] [copper],effect on channel activity,[1]; [5],significantly increases channel activity
same,open probability of the human channel after addition,"[1]; less than 1 μM copper, from 5-15% before addition",50-60%
same,effect on channel activity,[3]; [5],significantly increases channel activity
NC(=O)c1cnccn1 [pyrazinamide],effect on channel activity from the trans side of the bilayer,[1],blocked channel activity
"O=C(O)c1cnccn1 [PZA, pyrazinoate]","effect on channel activity, cis (cytoplasmic) side",[3],without effect
same,concentration that completely blocked channel activity,[3]; mean±SE,24.1 ± 8.9 µM
same,reversibility of block of channel activity,[3],reversed
O=c1[nH]c(=O)c2[nH]cnc2[nH]1 [xanthine],"effect on channel activity, cis (cytoplasmic) side",[3],blocked channel activity
same,concentration that completely blocked channel activity,[3]; mean±SE,4.6 ± 1.5 µM
same,"ratio of blocking concentration, extracellular side versus cytoplasmic face",[3]; complete block of channel activity,approximately one-tenth
[Ba+2] [Ba^+−],effect on channel activity,"[3]; 5 mM, symmetrical 2.5 mM urate and 220 mM KCl",failed to alter channel activity
Nc1ncnc2c1ncn2[C@@H]1O[C@H](CO)[C@@H](O)[C@H]1O [adenosine],effect on channel activity from the trans side of the bilayer,[1],blocked channel activity
same,"effect on channel activity, cis (cytoplasmic) side",[3],failed to block channel activity
same,concentration that completely blocked channel activity,[3]; mean±SE,4.6 ± 2.6 µM
